Data: patent US6514692B2, “Method for treatment of immunodeficiency virus infection” (priority 1996, dated 2003)
“And” between values parts separate entries of the source, which are not always exact repeats. Equal values may be shown once. Where no end group is shown, it is not given here.

Experiments:
in vitro = settings: human, ME180 cells
From the text: (§1) ME180 cells, a cervical epithelial cell line, were obtained from the American Type Culture Collection. These cells were thawed from liquid nitrogen and grown in RPMI 1640 medium supplemented with 10t fetal bovine serum, glutamine and antibiotics. The cells were adherent and were trypsinized (0.5% trypsin in HBSS) to remove them from the flask for passaging and use in assays. For use in the microtiter transmission inhibition assay, ME180 cells were trypsinized, washed and seeded in 96-well flat bottom microtiter plates (COSTAR) at a density of 5×10^3 cells per well. The cells were incubated at 37° C. for 24 hours prior to the tart of the assay. H9 cells chronically infected with he SK1 isolate of HIV-1 were treated with 200 μg/ml mitomycin C for 60 minutes at 37° C. After treatment the cells were washed three times with tissue culture medium. The chronically infected lymphocytes were added to each well at a density of 2×10^4 cells per well. The concentration of mitomycin C used in the treatment of the lymphocytes was chosen to allow lymphocyte survival for the period of time required to transmit virus to the uninfected ME180 cells, but to die prior to the time of assay so as not to contribute to the p24 signal used as the endpoint (see below). In the transmission assay the lytic peptides D4E1 and D2A21, with and without 150 μg/ml pig mucin, were added prior to the addition of chronically infected cells or were mixed with the chronically infected cells prior to their addition to the monolayer of ME180 cells. Mucin was included because it is an abundant constituent of the normal vaginal secretions of a human being, thus any chemotherapeutic agent targeting HIV should be active in its presence if it is to have clinical value. […] The lymphocytes and peptide were co-cultured with the ME180 cells for 6 hours and then removed by washing the ME180 monolayer four times with PBS. The plate was then incubated at 37° C. for six days. Medium was removed and changed every 48 hours during the incubation stage. No further peptide was added after the initial dose. At six days post-co-cultivation, the supernatant was removed from the wells and evaluated for the quantity of p24 antigen by ELISA. The ELISA was performed according to the manufacturer's recommendations. The amount of virus production in wells treated with various concentrations of the peptides was evaluated with appropriate cell and virus controls. Data are reported as a percent of virus control at each drug concentration. Linear regression analysis was used to calculate the […] and IC95 concentrations of the transmission inhibitor. […] TI represents the toxicity index, which is the ratio of the TC50/IC50, and is an indication of the relative concentrations window that exists between efficacy and toxicity.

ME180 cells = test: toxicity (XTT) in transmission inhibition assay; settings: for TOXICITY VALUES (XTT), single samples: samples 1-3
From the text: as §1

[1] = 0.32 μg/ml, with 150 μg/ml pig mucin
[2] = 1 μg/ml, with 150 μg/ml pig mucin
[3] = 3.2 μg/ml, with 150 μg/ml pig mucin
[4] = 10 μg/ml, with 150 μg/ml pig mucin
[5] = 32 μg/ml, with 150 μg/ml pig mucin
[6] = 100 μg/ml, with 150 μg/ml pig mucin

In the case of FKLRAKIKVRLRAKIKL [D4E1], the viability at 6 h, 0.32 µg/mL (in vitro) is reported as 98.6%, the viability at 6 h, 1 µg/mL (in vitro) is reported as 99.2% and the viability at 6 h, 3.2 µg/mL (in vitro) is reported as 95.4%. For the same sequence, the viability at 6 h, 10 µg/mL (in vitro) was 97.7%, the viability at 6 h, 32 µg/mL (in vitro) was 100% and the viability at 6 h, 100 µg/mL (in vitro) was 27.1%. For the same sequence, the “TOXICITY VALUES (XTT), MEAN” value (ME180 cells; 0.32 μg/ml, no mucin) was 0.521 O.D. @ 450/650 nm, the “TOXICITY VALUES (XTT), single samples” value (ME180 cells; 0.32 μg/ml, no mucin) was 0.518 O.D. @ 450/650 nm and 0.528 O.D. @ 450/650 nm and 0.516 O.D. @ 450/650 nm and the “TOXICITY VALUES (XTT), MEAN” value (ME180 cells; [1]) was 0.521 O.D. @ 450/650 nm. For the same sequence, the “TOXICITY VALUES (XTT), single samples” value (ME180 cells; [1]) was 0.518 O.D. @ 450/650 nm and 0.528 O.D. @ 450/650 nm, the “TOXICITY VALUES (XTT), MEAN” value (ME180 cells; 1 μg/ml, no mucin) was 0.523 O.D. @ 450/650 nm and the “TOXICITY VALUES (XTT), single samples” value (ME180 cells; 1 μg/ml, no mucin) was 0.535 O.D. @ 450/650 nm and 0.523 O.D. @ 450/650 nm and 0.511 O.D. @ 450/650 nm. The “TOXICITY VALUES (XTT), MEAN” value (ME180 cells; [2]) was 0.523 O.D. @ 450/650 nm, the “TOXICITY VALUES (XTT), single samples” value (ME180 cells; [2]) was 0.535 O.D. @ 450/650 nm and 0.523 O.D. @ 450/650 nm and 0.511 O.D. @ 450/650 nm and the “TOXICITY VALUES (XTT), MEAN” value (ME180 cells; 3.2 μg/ml, no mucin) was 0.503 O.D. @ 450/650 nm. For the same sequence, the “TOXICITY VALUES (XTT), single samples” value (ME180 cells; 3.2 μg/ml, no mucin) was 0.486 O.D. @ 450/650 nm and 0.513 O.D. @ 450/650 nm, the “TOXICITY VALUES (XTT), MEAN” value (ME180 cells; [3]) was 0.503 O.D. @ 450/650 nm and the “TOXICITY VALUES (XTT), single samples” value (ME180 cells; [3]) was 0.486 O.D. @ 450/650 nm and 0.513 O.D. @ 450/650 nm. The “TOXICITY VALUES (XTT), MEAN” value (ME180 cells; 10 μg/ml, no mucin) was 0.515 O.D. @ 450/650 nm, the “TOXICITY VALUES (XTT), single samples” value (ME180 cells; 10 μg/ml, no mucin) was 0.493 O.D. @ 450/650 nm and 0.526 O.D. @ 450/650 nm and 0.524 O.D. @ 450/650 nm and the “TOXICITY VALUES (XTT), MEAN” value (ME180 cells; [4]) was 0.515 O.D. @ 450/650 nm. For the same sequence, the “TOXICITY VALUES (XTT), single samples” value (ME180 cells; [4]) was 0.493 O.D. @ 450/650 nm and 0.526 O.D. @ 450/650 nm and 0.524 O.D. @ 450/650 nm, the “TOXICITY VALUES (XTT), MEAN” value (ME180 cells; 32 μg/ml, no mucin) was 0.529 O.D. @ 450/650 nm and the “TOXICITY VALUES (XTT), single samples” value (ME180 cells; 32 μg/ml, no mucin) was 0.551 O.D. @ 450/650 nm and 0.513 O.D. @ 450/650 nm and 0.524 O.D. @ 450/650 nm. The “TOXICITY VALUES (XTT), MEAN” value (ME180 cells; [5]) was 0.529 O.D. @ 450/650 nm, the “TOXICITY VALUES (XTT), single samples” value (ME180 cells; [5]) was 0.551 O.D. @ 450/650 nm and 0.513 O.D. @ 450/650 nm and 0.524 O.D. @ 450/650 nm and the “TOXICITY VALUES (XTT), MEAN” value (ME180 cells; 100 μg/ml, no mucin) was 0.143 O.D. @ 450/650 nm. For the same sequence, the “TOXICITY VALUES (XTT), single samples” value (ME180 cells; 100 μg/ml, no mucin) was 0.138 O.D. @ 450/650 nm and 0.162 O.D. @ 450/650 nm and 0.128 O.D. @ 450/650 nm, the “TOXICITY VALUES (XTT), MEAN” value (ME180 cells; [6]) was 0.143 O.D. @ 450/650 nm and the “TOXICITY VALUES (XTT), single samples” value (ME180 cells; [6]) was 0.138 O.D. @ 450/650 nm and 0.162 O.D. @ 450/650 nm and 0.128 O.D. @ 450/650 nm.
